From patent US9592221B2, “Antibacterial agents: aryl myxopyronin derivatives” (priority 2012, dated 2017) come the findings set out here.

The structures appear in SMILES notation. pIC50: −log10 of the molar value.

Experiment [1] addresses E. coli RNA polymerase σ^70 holoenzyme (Escherichia coli, UniProt P0A8T7+P0A8V2). As to the kind of experiment: Fluorescence-detected RNA polymerase assay, E. coli RNA polymerase. The experiment is classed as biochemical. The note with it: read-out: IC50 E. coli RNAP.
Experiment [2] has as its target S. aureus RNA polymerase core enzyme, S. aureus σ^A (Staphylococcus aureus, UniProt P47768+Q2G0N5). As to the kind of experiment: Fluorescence-detected RNA polymerase assay, S. aureus RNA polymerase. The experiment is classed as biochemical. The note with it: read-out: IC50 S. aureus RNAP.
The target of experiment [3] is M. tuberculosis RNA polymerase core enzyme, M. tuberculosis σ^A (Mycobacterium tuberculosis, UniProt P9WGY7+P9WGY9). As to the kind of experiment: Fluorescence-detected RNA polymerase assay, M. tuberculosis RNA polymerase. It is filed as biochemical. The note with it: read-out: IC50 M. tuberculosis RNAP.
Experiment [4] concerns Staphylococcus aureus ATCC 12600. As to the kind of experiment: MIC, spiral gradient endpoint assay, S. aureus ATCC 12600. It is filed as cell-based. The note with it: ATCC12600; Staphylococcus aureus ATCC 12600.
The test system of experiment [5] is Acinetobacter baumannii ATCC 19606. As to the kind of experiment: MIC, spiral gradient endpoint assay, A. baumannii. The experiment is classed as cell-based. The note with it: ATCC19606; Acinetobacter baumannii ATCC 19606.
The test system of experiment [6] is Escherichia coli D21f2tolC. As to the kind of experiment: MIC, spiral gradient endpoint assay, E. coli D21f2tolC. It is filed as cell-based. The note with it: Escherichia coli, D21F2TOLC, read-out: MIC E. coli D21f2toIC.
The subject of experiment [7] is Mycobacterium tuberculosis H37Rv. As to the kind of experiment: MIC, microplate Alamar Blue assay, M. tuberculosis. It is filed as cell-based.
In experiment [8] the test system is Bacillus anthracis Vollum 1b. As to the kind of experiment: microbe, parasite or virus in culture. It is filed as cell-based. The note with it: Bacillus anthracis, VOLLUM1B, read-out: MIC B. anthracis Vollum-1b.
Experiment [9] has as its system Francisella tularensis SCHU4. As to the kind of experiment: microbe, parasite or virus in culture. The experiment is classed as cell-based. The note with it: Francisella tularensis, SCHU4, read-out: MIC F. tularensis SCHU4.
Another experiment concerns Yersinia pestis C092. As to the kind of experiment: microbe, parasite or virus in culture. The experiment is classed as cell-based. The note with it: Yersinia pestis, C092, read-out: MIC Y. pestis C092.
For another experiment, the system named is Burkholderia mallei CHN7. As to the kind of experiment: microbe, parasite or virus in culture. It is filed as cell-based. The note with it: Burkholderia mallei, CHN7, read-out: MIC B. mallei CHN7.
Experiment [10] relates to Burkholderia pseudomallei Human/Blood/OH/US/1994. As to the kind of experiment: microbe, parasite or virus in culture. It is filed as cell-based. The note with it: Burkholderia pseudomallei, read-out: MIC B. pseudomallei Human/Blood/OH.
The test system of the next experiment is Brucella melitensis 16M. As to the kind of experiment: microbe, parasite or virus in culture. The experiment is classed as cell-based. The note with it: Brucella melitensis, 16M, read-out: MIC B. melitensis 16M.

Chain of E. coli RNA polymerase σ^70 holoenzyme (P0A8T7 whole entry): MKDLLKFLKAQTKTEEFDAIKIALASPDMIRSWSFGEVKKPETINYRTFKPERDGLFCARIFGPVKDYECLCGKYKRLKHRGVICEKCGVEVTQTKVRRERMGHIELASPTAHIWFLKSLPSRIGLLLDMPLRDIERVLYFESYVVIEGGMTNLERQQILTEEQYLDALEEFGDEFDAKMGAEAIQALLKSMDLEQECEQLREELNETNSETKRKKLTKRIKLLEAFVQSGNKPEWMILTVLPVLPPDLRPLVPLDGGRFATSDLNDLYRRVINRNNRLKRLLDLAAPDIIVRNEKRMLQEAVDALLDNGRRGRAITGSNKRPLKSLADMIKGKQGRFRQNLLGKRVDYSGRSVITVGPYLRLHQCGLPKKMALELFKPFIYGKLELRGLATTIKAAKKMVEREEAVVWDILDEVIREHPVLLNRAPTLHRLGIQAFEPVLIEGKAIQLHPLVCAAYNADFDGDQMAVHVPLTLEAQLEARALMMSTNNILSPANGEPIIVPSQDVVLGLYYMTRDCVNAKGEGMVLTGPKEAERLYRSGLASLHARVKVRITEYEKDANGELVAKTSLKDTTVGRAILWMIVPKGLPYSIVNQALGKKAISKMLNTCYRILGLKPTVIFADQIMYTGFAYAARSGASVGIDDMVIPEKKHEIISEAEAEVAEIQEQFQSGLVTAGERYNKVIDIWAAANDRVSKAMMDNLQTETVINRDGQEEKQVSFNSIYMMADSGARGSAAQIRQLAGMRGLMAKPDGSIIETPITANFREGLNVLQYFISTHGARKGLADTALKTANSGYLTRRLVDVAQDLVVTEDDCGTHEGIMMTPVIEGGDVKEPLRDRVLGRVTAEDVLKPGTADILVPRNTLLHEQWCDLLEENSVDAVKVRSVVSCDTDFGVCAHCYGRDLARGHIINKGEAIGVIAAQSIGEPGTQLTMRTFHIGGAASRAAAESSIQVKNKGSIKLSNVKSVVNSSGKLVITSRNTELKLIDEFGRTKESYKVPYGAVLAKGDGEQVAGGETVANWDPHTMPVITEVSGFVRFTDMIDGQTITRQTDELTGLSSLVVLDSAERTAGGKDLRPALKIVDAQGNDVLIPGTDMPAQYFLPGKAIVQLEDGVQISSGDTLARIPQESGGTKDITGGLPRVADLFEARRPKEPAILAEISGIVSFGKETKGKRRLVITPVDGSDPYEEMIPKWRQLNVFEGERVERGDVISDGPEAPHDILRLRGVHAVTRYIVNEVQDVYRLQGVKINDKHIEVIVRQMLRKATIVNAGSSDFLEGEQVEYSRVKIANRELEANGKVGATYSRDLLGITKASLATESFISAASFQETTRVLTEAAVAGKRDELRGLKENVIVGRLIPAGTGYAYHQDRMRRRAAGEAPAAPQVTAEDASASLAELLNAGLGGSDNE
Chain of E. coli RNA polymerase σ^70 holoenzyme (P0A800 whole entry, further chain): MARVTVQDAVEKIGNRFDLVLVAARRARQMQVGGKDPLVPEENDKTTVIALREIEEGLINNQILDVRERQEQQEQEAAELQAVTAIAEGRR
Chain of E. coli RNA polymerase σ^70 holoenzyme (P0A8V2 whole entry): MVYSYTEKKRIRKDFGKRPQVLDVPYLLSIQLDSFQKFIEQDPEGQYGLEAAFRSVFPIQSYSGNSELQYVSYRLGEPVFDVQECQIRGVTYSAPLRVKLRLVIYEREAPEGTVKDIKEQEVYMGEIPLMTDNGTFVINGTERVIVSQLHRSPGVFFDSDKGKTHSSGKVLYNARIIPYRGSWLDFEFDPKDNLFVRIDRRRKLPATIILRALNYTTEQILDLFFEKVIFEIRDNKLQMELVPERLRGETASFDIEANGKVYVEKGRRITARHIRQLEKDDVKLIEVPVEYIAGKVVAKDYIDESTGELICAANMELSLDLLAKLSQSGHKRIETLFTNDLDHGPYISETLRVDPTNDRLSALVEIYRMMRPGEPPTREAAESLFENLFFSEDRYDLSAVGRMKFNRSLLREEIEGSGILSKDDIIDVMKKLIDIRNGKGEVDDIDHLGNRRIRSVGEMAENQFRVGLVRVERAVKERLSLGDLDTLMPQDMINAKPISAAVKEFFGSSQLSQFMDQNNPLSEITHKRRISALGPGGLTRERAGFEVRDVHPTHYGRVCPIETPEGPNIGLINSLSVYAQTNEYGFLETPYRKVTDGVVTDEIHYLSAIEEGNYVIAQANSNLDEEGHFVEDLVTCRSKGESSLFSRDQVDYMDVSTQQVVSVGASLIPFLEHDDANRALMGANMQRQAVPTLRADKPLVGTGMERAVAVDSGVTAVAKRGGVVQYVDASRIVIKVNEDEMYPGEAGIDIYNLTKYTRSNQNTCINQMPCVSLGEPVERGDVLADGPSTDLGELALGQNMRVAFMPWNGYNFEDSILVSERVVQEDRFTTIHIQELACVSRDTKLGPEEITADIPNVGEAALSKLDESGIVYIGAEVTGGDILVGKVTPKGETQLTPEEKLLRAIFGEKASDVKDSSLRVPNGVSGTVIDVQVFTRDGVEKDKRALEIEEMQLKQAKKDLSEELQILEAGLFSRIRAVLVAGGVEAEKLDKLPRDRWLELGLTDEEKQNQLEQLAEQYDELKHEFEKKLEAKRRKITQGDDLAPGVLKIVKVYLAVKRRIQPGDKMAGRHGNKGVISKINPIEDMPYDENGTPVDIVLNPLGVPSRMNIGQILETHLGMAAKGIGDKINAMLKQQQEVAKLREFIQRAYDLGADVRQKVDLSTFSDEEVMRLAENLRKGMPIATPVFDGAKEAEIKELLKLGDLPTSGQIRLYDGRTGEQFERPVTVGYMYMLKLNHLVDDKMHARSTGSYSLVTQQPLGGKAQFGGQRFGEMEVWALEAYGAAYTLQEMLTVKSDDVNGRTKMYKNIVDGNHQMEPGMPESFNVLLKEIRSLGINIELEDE
Chain of E. coli RNA polymerase σ^70 holoenzyme (P00579 whole entry, further chain): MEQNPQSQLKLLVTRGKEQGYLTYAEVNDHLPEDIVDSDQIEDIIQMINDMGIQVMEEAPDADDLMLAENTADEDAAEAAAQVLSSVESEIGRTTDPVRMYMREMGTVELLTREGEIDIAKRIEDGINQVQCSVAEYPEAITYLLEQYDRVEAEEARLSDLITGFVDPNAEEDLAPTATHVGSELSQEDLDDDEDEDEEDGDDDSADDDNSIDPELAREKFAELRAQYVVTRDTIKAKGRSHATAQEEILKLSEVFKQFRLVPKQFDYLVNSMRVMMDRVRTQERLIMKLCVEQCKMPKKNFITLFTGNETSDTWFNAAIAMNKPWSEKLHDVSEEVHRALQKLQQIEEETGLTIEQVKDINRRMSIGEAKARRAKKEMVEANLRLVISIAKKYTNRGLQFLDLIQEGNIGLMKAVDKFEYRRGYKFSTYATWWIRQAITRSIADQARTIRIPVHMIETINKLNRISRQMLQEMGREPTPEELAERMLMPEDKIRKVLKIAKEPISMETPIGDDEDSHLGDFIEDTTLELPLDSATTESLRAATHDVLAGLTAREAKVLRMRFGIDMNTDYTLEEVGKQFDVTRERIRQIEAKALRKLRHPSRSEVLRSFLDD
Chain of E. coli RNA polymerase σ^70 holoenzyme (P0A7Z4 whole entry, further chain): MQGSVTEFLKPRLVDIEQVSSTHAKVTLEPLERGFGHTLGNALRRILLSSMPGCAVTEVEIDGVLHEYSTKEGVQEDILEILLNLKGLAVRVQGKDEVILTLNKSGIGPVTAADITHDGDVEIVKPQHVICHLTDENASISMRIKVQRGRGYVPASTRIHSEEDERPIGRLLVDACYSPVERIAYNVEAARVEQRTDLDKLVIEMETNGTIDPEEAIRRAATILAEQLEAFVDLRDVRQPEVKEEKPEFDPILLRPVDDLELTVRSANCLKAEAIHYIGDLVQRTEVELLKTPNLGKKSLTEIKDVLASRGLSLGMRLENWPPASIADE

Consider `C=CCCc1ccc(C=C(C)C(=O)c2c(O)cc(C(C)CC/C=C/NC(=O)OC)oc2=O)s1` (mixture of isomers) [APY28, methyl (E)-5-(3-((E/Z)-3-(5-(but-3-enyl)thiophen-2-yl)-2-methylacryloyl)-4-hydroxy-2-oxo-2H-pyran-6-yl)hex-1-enylcarbamate], for which the pIC50 was 7.40 in [1], 7.22 in experiment [2] and 6.70 in experiment [3]. In addition, the MIC in experiment [4] amounted to 2 µg/mL; in [5], 30 µg/mL; in experiment [6], 0.3 µg/mL; in experiment [7] it was 6 µg/mL; in [8] it was 6 µg/mL; in experiment [9], 30 µg/mL. In addition, the MIC in the experiment on Yersinia pestis C092 worked out at 30 µg/mL; with Burkholderia mallei CHN7 it was 10 µg/mL; in [10], 30 µg/mL; in the experiment with Brucella melitensis 16M it was 0.4 µg/mL.
Regarding `CCCCCCc1ccc2oc(C=C(C)C(=O)c3c(O)cc(C(C)CC/C=C/NC(=O)OC)oc3=O)cc2c1` (mixture of isomers) [APY20, methyl (E)-5-(3-((E/Z)-3-(5-hexylbenzofuran-2-yl)-2-methylacryloyl)-4-hydroxy-2-oxo-2H-pyran-6-yl)hex-1-enylcarbamate], the figures for the pIC50 in [1], in [2] and in experiment [3] were 8.40, 7.70 and 6.52, respectively. Moreover, the MIC in [4] is over 40 µg/mL; in experiment [5] it was over 40 µg/mL; in experiment [6], 0.3 µg/mL; in experiment [7], 6 µg/mL; in [8] it was 2 µg/mL; in experiment [9], 0.8 µg/mL. Also, the MIC was over 50 µg/mL in the experiment on Yersinia pestis C092, 2 µg/mL in the experiment on Burkholderia mallei CHN7, over 50 µg/mL in [10] and 0.8 µg/mL with Brucella melitensis 16M.
As to `CCCCc1ccc(C=C(C)C(=O)c2c(O)cc(C(C)CC/C=C/NC(=O)OC)oc2=O)s1` (mixture of isomers) [APY16, methyl (E)-5-(3-((E/Z)-3-(5-butylthiophen-2-yl)-2-methylacryloyl)-4-hydroxy-2-oxo-2H-pyran-6-yl)hex-1-enylcarbamate], the pIC50 was 7.52 in [1], 7.00 in experiment [2] and 6.52 in experiment [3]. Moreover, the MIC amounted to 0.6 µg/mL in experiment [4]; 20 µg/mL in experiment [5]; 0.1 µg/mL in experiment [6]; 30 µg/mL in [7]; 2 µg/mL in experiment [8]; 0.8 µg/mL in experiment [9]. Besides, the MIC in the experiment with Yersinia pestis C092 is 10 µg/mL; in the experiment with Burkholderia mallei CHN7, 2 µg/mL; in experiment [10] it was 6 µg/mL; with Brucella melitensis 16M, 0.8 µg/mL.
On to `CCCCCCc1cccc(C=C(C)C(=O)c2c(O)cc(C(C)CC/C=C/NC(=O)OC)oc2=O)c1` (mixture of isomers) [APY34, methyl (E)-5-(3-((E/Z)-3-(3-hexylphenyl)-2-methylacryloyl)-4-hydroxy-2-oxo-2H-pyran-6-yl)hex-1-enylcarbamate], for which the values for the negative logarithm of the IC50 (pIC50) in [1], in [2] and in experiment [3] were 8.00, 7.30 and 5.52, respectively. For the same compound, the MIC in experiment [4] was over 40 µg/mL; in experiment [5], 10 µg/mL; in experiment [6], 0.3 µg/mL; in experiment [7], 30 µg/mL; in [8], 3 µg/mL; in experiment [9], 6 µg/mL. Also, the MIC in the experiment with Yersinia pestis C092 was over 50 µg/mL; with Burkholderia mallei CHN7, 3 µg/mL; in experiment [10], 30 µg/mL; in the experiment with Brucella melitensis 16M it was 3 µg/mL.
As to `CCCCCCc1ccc(C=C(C)C(=O)c2c(O)cc(C(C)CC/C=C/NC(=O)OC)oc2=O)o1` (mixture of isomers) [APY17, methyl (E)-5-(3-((E/Z)-3-(5-hexylfuran-2-yl)-2-methylacryloyl)-4-hydroxy-2-oxo-2H-pyran-6-yl)hex-1-enylcarbamate], the pIC50 is 7.70 in experiment [1], 7.00 in experiment [2] and 6.05 in [3]. The MIC in [4] is 8 µg/mL; in experiment [5] it was 10 µg/mL; in experiment [6], 0.1 µg/mL; in [7], 10 µg/mL; in experiment [8] it was 2 µg/mL; in [9], 0.8 µg/mL. For the same compound, the MIC in the experiment with Yersinia pestis C092 was 10 µg/mL; in the experiment on Burkholderia mallei CHN7, 3 µg/mL; in experiment [10] it was 30 µg/mL; in the experiment on Brucella melitensis 16M it was 2 µg/mL.
For `CCCCc1ccc(C=C(CC)C(=O)c2c(O)cc(C(C)CC/C=C/NC(=O)OC)oc2=O)s1` (mixture of isomers) [APY21, methyl (E)-5-(3-((E/Z)-2-((5-butylthiophen-2-yl)methylene)butanoyl)-4-hydroxy-2-oxo-2H-pyran-6-yl)hex-1-enylcarbamate], the values for the pIC50 in [1], in [2] and in experiment [3] were 7.40, 6.30 and 6.52, respectively. In addition, the MIC in experiment [4] is 2 µg/mL; in [5], 20 µg/mL; in experiment [6], 0.3 µg/mL; in experiment [7] it was 10 µg/mL; in [8], 3 µg/mL; in experiment [9], 3 µg/mL. The MIC was over 50 µg/mL in the experiment on Yersinia pestis C092, 6 µg/mL in the experiment on Burkholderia mallei CHN7, 10 µg/mL in experiment [10] and 2 µg/mL in the experiment on Brucella melitensis 16M.
Regarding `CCCCc1ccc2sc(C=C(C)C(=O)c3c(O)cc(C(C)CC/C=C/NC(=O)OC)oc3=O)cc2c1` (mixture of isomers) [APY26, methyl (E)-5-(3-((E/Z)-3-(5-butylbenzo[b]thiophen-2-yl)-2-methylacryloyl)-4-hydroxy-2-oxo-2H-pyran-6-yl)hex-1-enylcarbamate], the pIC50 in experiment [1] is 7.70; in [2], 6.70; in experiment [3], 6.00. The MIC is over 40 µg/mL in [4]; over 40 µg/mL in [5]; 0.3 µg/mL in experiment [6]; 6 µg/mL in experiment [7]; 2 µg/mL in experiment [8]; 2 µg/mL in [9]. Moreover, the MIC with Yersinia pestis C092 is over 50 µg/mL; in the experiment on Burkholderia mallei CHN7, 6 µg/mL; in experiment [10], over 50 µg/mL; in the experiment on Brucella melitensis 16M, 2 µg/mL.
`CCCCCCc1ccc(C=C(C)C(=O)c2c(O)cc(C(C)CC/C=C/NC(=O)OC)oc2=O)s1` (mixture of isomers) [APY15, methyl (E)-5-(3-((E/Z)-3-(5-hexylthiophen-2-yl)-2-methylacryloyl)-4-hydroxy-2-oxo-2H-pyran-6-yl)hex-1-enylcarbamate]: the pIC50 in [1] is 8.30; in experiment [2], 7.70; in experiment [3] it was 6.70. Moreover, the MIC was 0.9 µg/mL in experiment [4]; 6 µg/mL in experiment [5]; 0.08 µg/mL in [6]; over 50 µg/mL in [7]; 0.4 µg/mL in experiment [8]; 0.4 µg/mL in experiment [9]. The MIC in the experiment with Yersinia pestis C092 was determined as 3 µg/mL; in the experiment with Burkholderia mallei CHN7, 0.8 µg/mL; in experiment [10] it was 3 µg/mL; in the experiment on Brucella melitensis 16M it was 0.4 µg/mL.
As to `COC(=O)N/C=C/CCC(C)c1cc(O)c(C(=O)C(C)=Cc2ccc(CCCC3CCCCC3)s2)c(=O)o1` (mixture of isomers) [APY32, methyl (E)-5-(3-((E/Z)-3-(5-(3-cyclohexylpropyl)thiophen-2-yl)-2-methylacryloyl)-4-hydroxy-2-oxo-2H-pyran-6-yl)hex-1-enylcarbamate], the pIC50 in experiment [1] is 8.22; in [2], 8.22; in experiment [3], 5.70. For the same compound, the MIC is over 40 µg/mL in [4]; over 40 µg/mL in experiment [5]; 0.4 µg/mL in experiment [6]; 6 µg/mL in experiment [7]; 2 µg/mL in experiment [8]; 0.8 µg/mL in experiment [9]. The MIC was over 50 µg/mL in the experiment with Yersinia pestis C092, 2 µg/mL with Burkholderia mallei CHN7, 6 µg/mL in experiment [10] and 2 µg/mL with Brucella melitensis 16M.
For `COC(=O)N/C=C/CCC(C)c1cc(O)c(C(=O)C(C)=Cc2sc(CCC(C)C)cc2C)c(=O)o1` (mixture of isomers) [APY76, methyl (E)-5-(3-((E/Z)-3-(5-isopentyl-3-methylthiophen-2-yl)-2-methylacryloyl)-4-hydroxy-2-oxo-2H-pyran-6-yl)hex-1-enylcarbamate], the results for the pIC50 in experiment [1], in experiment [2] and in [3] were 8.52, 7.10 and 7.30, respectively. In addition, the MIC in experiment [4] is 0.2 µg/mL; in experiment [5], 4 µg/mL; in experiment [6], 0.09 µg/mL; in [7], 30 µg/mL; in experiment [8], 0.4 µg/mL; in experiment [9], 10 µg/mL. For the same compound, the MIC in the experiment with Burkholderia mallei CHN7 worked out at 6 µg/mL; in experiment [10], 6 µg/mL; with Brucella melitensis 16M, 3 µg/mL.

A word on the pIC50: it is −log10 of the IC50, conventionally taken in molar units.
